Test results: patent US20150005281A1, “PYRIMIDINE-2,4-DIAMINE DERIVATIVES AS KINASE INHIBITORS” (Cellzome Limited, priority 2011, published 2015)

Legend:
Format in all cases: binding
JAK1 = target: T1, JAK1 (Homo sapiens, UniProt P23458); assay: Kinobeads assay with immunodetection, JAK1; conditions: for IC50: Kinobeads assay, mixed Molt4/Ramos lysate, read-out: Inhibition values (IC50) JAK1
T1 construct: endogenous in cells; host or cells: Molt4 (ATCC CRL-1582) and Ramos (ATCC CRL-1596) cells; mixed lysate 1:2
T1 sequence (P23458 whole entry): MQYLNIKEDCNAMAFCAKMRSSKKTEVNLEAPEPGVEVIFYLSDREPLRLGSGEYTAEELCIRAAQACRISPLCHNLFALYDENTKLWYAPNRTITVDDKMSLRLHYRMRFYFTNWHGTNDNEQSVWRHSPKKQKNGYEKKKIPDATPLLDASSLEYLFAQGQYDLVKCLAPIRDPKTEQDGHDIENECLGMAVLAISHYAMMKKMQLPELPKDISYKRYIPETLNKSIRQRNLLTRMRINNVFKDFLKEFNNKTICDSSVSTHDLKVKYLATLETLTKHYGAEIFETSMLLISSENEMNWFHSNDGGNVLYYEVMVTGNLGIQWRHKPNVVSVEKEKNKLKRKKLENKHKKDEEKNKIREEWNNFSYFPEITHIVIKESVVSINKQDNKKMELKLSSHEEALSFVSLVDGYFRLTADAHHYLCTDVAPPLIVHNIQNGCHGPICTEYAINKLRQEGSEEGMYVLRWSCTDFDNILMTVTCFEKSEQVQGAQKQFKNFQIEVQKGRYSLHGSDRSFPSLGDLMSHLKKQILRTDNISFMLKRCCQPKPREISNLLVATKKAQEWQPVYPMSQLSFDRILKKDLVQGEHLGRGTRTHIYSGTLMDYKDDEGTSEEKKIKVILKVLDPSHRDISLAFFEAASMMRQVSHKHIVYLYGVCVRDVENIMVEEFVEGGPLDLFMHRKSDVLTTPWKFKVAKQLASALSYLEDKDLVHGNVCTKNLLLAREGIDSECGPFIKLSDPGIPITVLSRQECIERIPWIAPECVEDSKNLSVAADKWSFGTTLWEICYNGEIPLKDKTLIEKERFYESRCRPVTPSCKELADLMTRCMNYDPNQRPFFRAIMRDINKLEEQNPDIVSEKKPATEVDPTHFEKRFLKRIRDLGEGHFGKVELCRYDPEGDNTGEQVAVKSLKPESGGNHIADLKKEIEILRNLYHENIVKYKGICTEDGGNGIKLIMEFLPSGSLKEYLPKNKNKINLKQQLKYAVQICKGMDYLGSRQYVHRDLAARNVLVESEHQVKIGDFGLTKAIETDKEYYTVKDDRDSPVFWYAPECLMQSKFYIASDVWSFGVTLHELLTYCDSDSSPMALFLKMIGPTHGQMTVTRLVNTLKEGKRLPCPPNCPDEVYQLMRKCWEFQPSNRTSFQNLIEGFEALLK
Procedure: (§1) Determination of the Effect of the Compounds According to the Invention on Janus Kinases (JAK Family) in Kinobeads™ Assays with Immunodetection of Kinases
(§2) The compounds of the present invention as described in the previous examples were tested in a Kinobeads™ assay as described for ZAP-70 (WO-A 2007/137867). Briefly, test compounds (at various concentrations) and the affinity matrix with the immobilized aminopyrido-pyrimidine ligand 24 were added to cell lysate aliquots and allowed to bind to the proteins in the lysate sample. After the incubation time the beads with captured proteins were separated from the lysate. Bound proteins were then eluted and the presence of JAK1, JAK2, JAK3 and TYK2 was detected and quantified using specific antibodies in a dot blot procedure and the Odyssey infrared detection system. Dose response curves for individual kinases were generated and IC50 values calculated. Kinobeads™ assays for ZAP-70 (WO-A 2007/137867) and for kinase selectivity profiling (WO-A 2006/134056) have been previously described.
(§3) The affinity matrix was washed two times with 15 mL of 1×DP buffer containing 0.2% NP40 (IGEPAL® CA-630, Sigma, #13021) and then resuspended in 1×DP buffer containing 0.2% NP40 (3% beads slurry).
(§4) 5×DP buffer: 250 mM Tris-HCl pH 7.4, 25% Glycerol, 7.5 mM MgCl2, 750 mM NaCl, 5 mM Na3VO4; filter the 5×DP buffer through a 0.22 μm filter and store in aliquots at −80° C. The 5×DP buffer is diluted with H2O to 1×DP buffer containing 1 mM DTT and 25 mM NaF.
(§5) Stock solutions of test compounds were prepared in DMSO. In a 96 well plate 30 μL solution of diluted test compounds at 5 mM in DMSO were prepared. Starting with this solution a 1:3 dilution series (9 steps) was prepared. For control experiments (no test compound) a buffer containing 2% DMSO was used.
(§6) Molt4 cells (ATCC catalogue number CRL-1582) and Ramos cells (ATCC catalogue number CRL-1596) were grown in 1 L Spinner flasks (Integra Biosciences, #182101) in suspension in RPMI 1640 medium (Invitrogen, #21875-034) supplemented with 10% Fetal Bovine Serum (Invitrogen) at a density between 0.15×10^6 and 1.2×10^6 cells/mL. Cells were harvested by centrifugation, washed once with 1×PBS buffer (Invitrogen, #14190-094) and cell pellets were frozen in liquid nitrogen and subsequently stored at −80° C. Cells were homogenized in a Potter S homogenizer in lysis buffer: 50 mM Tris-HCl, 0.8% NP40, 5% glycerol, 150 mM NaCl, 1.5 mM MgCl2, 25 mM NaF, 1 mM sodium vanadate, 1 mM DTT, pH 7.5. One complete EDTA-free tablet (protease inhibitor cocktail, Roche Diagnostics, 1873580) per 25 ml, buffer was added. The material was dounced 10 times using a mechanized POTTER S, transferred to 50 mL falcon tubes, incubated for 30 minutes on ice and spun down for 10 minutes at 20,000 g at 4° C. (10,000 rpm in Sorvall SLA600, precooled). The supernatant was transferred to an ultracentrifuge (UZ)-polycarbonate tube (Beckmann, 355654) and spun for 1 hour at 100.000 g at 4° C. (33.500 rpm in Ti50.2, precooled). The supernatant was transferred again to a fresh 50 mL falcon tube, the protein concentration was determined by a Bradford assay (BioRad) and samples containing 50 mg of protein per aliquot were prepared. The samples were immediately used for experiments or frozen in liquid nitrogen and stored frozen at −80° C.
(§7) Cell lysate (approximately 50 mg protein per plate) was thawed in a water bath at room temperature and then stored on ice. To the thawed cell lysate 1×DP 0.8% NP40 buffer containing protease inhibitors (1 tablet for 25 mL buffer; EDTA-free protease inhibitor cocktail; Roche Diagnostics 1873580) was added in order to reach a final protein concentration of 10 mg/mL total protein. The diluted cell lysate was stored on ice. Mixed Molt4/Ramos lysate was prepared by combining one volume of Molt4 lysate and two volumes of Ramos lysate (ratio 1:2). […]

JAK2 = target: T2, JAK2 (Homo sapiens, UniProt O60674); assay: Kinobeads assay with immunodetection, JAK2; conditions: mixed Molt4/Ramos lysate, read-out: Inhibition values (IC50) JAK2
T2 construct: endogenous in cells; host or cells: Molt4 (ATCC CRL-1582) and Ramos (ATCC CRL-1596) cells; mixed lysate 1:2
T2 sequence (O60674 whole entry): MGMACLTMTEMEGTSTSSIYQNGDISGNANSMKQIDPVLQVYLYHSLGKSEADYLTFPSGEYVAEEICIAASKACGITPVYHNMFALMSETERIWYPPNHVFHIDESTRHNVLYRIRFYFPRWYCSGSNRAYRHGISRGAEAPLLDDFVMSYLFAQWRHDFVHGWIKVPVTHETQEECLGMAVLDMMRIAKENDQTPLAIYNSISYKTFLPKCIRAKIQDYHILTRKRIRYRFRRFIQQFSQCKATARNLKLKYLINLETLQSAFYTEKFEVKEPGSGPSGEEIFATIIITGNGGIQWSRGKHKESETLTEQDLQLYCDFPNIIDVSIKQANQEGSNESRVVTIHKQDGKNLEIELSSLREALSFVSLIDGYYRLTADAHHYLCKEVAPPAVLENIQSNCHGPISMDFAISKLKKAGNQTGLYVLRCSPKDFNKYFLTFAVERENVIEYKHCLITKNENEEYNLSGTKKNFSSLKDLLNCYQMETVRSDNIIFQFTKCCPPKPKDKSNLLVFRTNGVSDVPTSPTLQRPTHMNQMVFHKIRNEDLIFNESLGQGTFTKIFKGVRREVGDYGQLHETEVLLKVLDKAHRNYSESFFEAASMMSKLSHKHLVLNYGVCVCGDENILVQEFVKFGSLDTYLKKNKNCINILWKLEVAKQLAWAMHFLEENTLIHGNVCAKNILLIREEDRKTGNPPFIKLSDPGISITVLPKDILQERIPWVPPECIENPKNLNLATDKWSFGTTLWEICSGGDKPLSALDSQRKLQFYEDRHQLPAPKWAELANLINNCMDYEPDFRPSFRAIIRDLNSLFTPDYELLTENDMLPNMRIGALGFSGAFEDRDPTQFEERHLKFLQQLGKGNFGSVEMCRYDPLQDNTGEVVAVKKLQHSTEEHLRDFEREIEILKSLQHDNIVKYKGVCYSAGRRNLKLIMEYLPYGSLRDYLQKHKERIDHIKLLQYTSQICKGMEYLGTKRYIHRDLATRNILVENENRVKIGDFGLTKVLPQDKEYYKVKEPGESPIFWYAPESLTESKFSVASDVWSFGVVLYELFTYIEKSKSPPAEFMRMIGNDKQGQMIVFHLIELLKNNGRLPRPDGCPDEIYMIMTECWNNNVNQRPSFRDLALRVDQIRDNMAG
Procedure: as §1, §2, §3, §4, §5, §6, §7

JAK3 = target: T3, JAK3 (Homo sapiens, UniProt P52333); assay: Kinobeads assay with immunodetection, JAK3; conditions: for IC50: Kinobeads assay, mixed Molt4/Ramos lysate, read-out: Inhibition values (IC50) JAK3
T3 construct: endogenous in cells; host or cells: Molt4 (ATCC CRL-1582) and Ramos (ATCC CRL-1596) cells; mixed lysate 1:2
T3 sequence (P52333 1-1124): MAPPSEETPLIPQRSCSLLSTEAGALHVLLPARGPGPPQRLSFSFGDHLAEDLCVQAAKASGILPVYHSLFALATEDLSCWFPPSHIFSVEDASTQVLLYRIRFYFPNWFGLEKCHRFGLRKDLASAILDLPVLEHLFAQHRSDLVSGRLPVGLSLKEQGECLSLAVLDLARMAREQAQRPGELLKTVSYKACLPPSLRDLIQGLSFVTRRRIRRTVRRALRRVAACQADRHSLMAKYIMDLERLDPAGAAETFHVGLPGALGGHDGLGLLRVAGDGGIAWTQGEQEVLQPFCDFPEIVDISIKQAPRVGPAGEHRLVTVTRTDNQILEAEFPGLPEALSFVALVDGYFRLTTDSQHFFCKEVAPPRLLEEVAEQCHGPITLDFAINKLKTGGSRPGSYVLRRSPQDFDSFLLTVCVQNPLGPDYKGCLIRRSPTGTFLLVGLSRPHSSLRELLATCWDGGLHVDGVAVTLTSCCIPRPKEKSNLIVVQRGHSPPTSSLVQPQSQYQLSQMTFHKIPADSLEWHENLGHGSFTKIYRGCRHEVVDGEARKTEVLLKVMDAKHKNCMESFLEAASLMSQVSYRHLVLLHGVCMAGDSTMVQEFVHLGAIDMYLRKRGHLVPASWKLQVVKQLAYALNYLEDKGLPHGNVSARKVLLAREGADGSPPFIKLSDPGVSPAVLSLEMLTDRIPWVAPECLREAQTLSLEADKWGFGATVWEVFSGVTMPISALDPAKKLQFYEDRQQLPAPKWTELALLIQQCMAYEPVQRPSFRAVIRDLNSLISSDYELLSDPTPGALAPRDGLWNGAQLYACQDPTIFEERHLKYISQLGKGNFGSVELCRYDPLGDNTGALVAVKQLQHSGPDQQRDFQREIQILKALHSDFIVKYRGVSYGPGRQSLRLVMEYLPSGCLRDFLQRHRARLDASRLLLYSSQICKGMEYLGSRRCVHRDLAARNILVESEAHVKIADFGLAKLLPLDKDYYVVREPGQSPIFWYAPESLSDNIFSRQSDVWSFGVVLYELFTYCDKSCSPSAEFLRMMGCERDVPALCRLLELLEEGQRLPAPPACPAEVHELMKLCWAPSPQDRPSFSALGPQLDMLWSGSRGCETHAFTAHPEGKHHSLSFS
Procedure: as §1, §2, §3, §4, §5, §6, §7

TYK2 = target: T4, TYK2 (Homo sapiens, UniProt P29597); assay: Kinobeads assay with immunodetection, TYK2; conditions: for IC50: Kinobeads assay, mixed Molt4/Ramos lysate, read-out: Inhibition values (IC50) Tyk2
T4 construct: endogenous in cells; host or cells: Molt4 (ATCC CRL-1582) and Ramos (ATCC CRL-1596) cells; mixed lysate 1:2
T4 sequence (P29597 whole entry): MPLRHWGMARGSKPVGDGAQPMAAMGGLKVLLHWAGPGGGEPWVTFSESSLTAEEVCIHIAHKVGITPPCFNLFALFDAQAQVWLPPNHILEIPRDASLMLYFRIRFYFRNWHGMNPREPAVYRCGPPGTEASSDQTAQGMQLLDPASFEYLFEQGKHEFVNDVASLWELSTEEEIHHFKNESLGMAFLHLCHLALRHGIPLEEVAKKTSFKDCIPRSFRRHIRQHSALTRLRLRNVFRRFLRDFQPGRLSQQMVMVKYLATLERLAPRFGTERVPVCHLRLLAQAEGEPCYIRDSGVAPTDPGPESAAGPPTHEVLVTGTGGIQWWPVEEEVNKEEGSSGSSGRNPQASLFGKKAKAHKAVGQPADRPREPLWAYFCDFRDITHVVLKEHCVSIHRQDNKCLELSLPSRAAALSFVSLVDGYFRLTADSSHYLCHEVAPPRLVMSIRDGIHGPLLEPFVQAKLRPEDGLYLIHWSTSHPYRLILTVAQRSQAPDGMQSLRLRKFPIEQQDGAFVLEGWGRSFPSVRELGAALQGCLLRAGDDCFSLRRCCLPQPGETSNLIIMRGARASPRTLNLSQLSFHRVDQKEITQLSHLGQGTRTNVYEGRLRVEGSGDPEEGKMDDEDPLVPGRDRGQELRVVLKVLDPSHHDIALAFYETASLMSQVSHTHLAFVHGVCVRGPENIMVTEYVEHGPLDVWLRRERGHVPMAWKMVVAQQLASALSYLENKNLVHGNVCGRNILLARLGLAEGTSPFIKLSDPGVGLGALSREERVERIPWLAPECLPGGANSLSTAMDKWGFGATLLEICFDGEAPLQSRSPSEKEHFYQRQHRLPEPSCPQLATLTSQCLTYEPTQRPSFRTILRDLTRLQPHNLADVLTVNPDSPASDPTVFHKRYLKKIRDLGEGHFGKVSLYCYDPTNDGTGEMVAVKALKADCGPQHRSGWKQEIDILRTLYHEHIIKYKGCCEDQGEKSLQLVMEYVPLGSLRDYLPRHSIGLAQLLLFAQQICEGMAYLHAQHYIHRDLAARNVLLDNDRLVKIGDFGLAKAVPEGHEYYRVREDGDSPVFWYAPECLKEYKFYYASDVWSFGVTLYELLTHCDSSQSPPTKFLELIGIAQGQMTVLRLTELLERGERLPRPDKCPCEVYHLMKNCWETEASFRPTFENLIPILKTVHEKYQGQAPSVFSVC
Procedure: as §1, §2, §3, §4, §5, §6, §7

Row | IC50 (JAK1) [µM] | IC50 (JAK2) [µM] | Selectivity ratio over JAK2, JAK3 (JAK3) | IC50 (JAK3) [µM] | IC50 (TYK2) [µM] | Selectivity ratio over JAK2, JAK1 (JAK1) | Selectivity ratio over JAK2, Tyk2 (TYK2; Tyk2 over JAK2) | SMILES
1 | < 0.1 | 0.1 to 1 | – | 0.1 to 1 | < 0.1 | JAK1 = 23 | – | Cn1cc(Nc2ncc(Cl)c(NC[C@H]3CCN(S(C)(=O)=O)C3)n2)cn1 [Example 24, (R)-5-chloro-N^2-(1-methyl-1H-pyrazol-4-yl)-N^4-((1-(methylsulfonyl)pyrrolidin-3-yl)methyl)pyrimidine-2,4-diamine]
2 | 0.1 to 1 | > 10 | – | 0.1 to 1 | 1 to 10 | – | – | C=CC(=O)N1CC[C@@H](CNc2nc(Nc3cnn(CCO)c3)ncc2Cl)C1 [Example 29, (S)-1-(3-(((5-chloro-2-((1-(2-hydroxyethyl)-1H-pyrazol-4-yl)amino)pyrimidin-4-yl)amino)methyl)pyrrolidin-1-yl)prop-2-en-1-one]
3 | 0.1 to 1 | 1 to 10 | JAK3 = 190 | < 0.1 | 0.1 to 1 | – | – | C=CS(=O)(=O)N1CC[C@@H](CNc2nc(Nc3cnn(C)c3)ncc2Cl)C1 [Example 31, (S)-5-chloro-N^2-(1-methyl-1H-pyrazol-4-yl)-N^4-((1-(vinylsulfonyl)pyrrolidin-3-yl)methyl)pyrimidine-2,4-diamine]
4 | 1 to 10 | > 10 | – | 1 to 10 | 1 to 10 | – | – | CC(=O)N1CCCC[C@H]1CNc1nc(Nc2cnn(C)c2)ncc1Cl [Example 32, (S)-1-(2-(((5-chloro-2-((1-methyl-1H-pyrazol-4-yl)amino)pyrimidin-4-yl)amino)methyl)piperidin-1-yl)ethanone]
5 | 0.1 to 1 | > 10 | – | 1 to 10 | 1 to 10 | – | – | C=CC(=O)N1CCCC[C@H]1CNc1nc(Nc2cnn(C)c2)ncc1Cl [Example 34, (S)-1-(2-(((5-chloro-2-((1-methyl-1H-pyrazol-4-yl)amino)pyrimidin-4-yl)amino)methyl)piperidin-1-yl)prop-2-en-1-one]

Further lines, the compound ahead of its results:

Row | SMILES | IC50 (JAK1) [µM] | IC50 (JAK2) [µM] | Selectivity ratio over JAK2, JAK3 (JAK3) | IC50 (JAK3) [µM] | IC50 (TYK2) [µM] | Selectivity ratio over JAK2, JAK1 (JAK1) | Selectivity ratio over JAK2, Tyk2 (TYK2; Tyk2 over JAK2)
6 | C=CC(=O)N1CC[C@H](CNc2nc(Nc3cnn(CCO)c3)ncc2Cl)C1 [Example 23, (R)-1-(3-(((5-chloro-2-((1-(2-hydroxyethyl)-1H-pyrazol-4-yl)amino)pyrimidin-4-yl)amino)methyl)pyrrolidin-1-yl)prop-2-en-1-one] | < 0.1 | 1 to 10 | JAK3 = 270 | < 0.1 | < 0.1 | – | –
7 | C=CS(=O)(=O)N1CC[C@H](CNc2nc(Nc3cnn(C)c3)ncc2Cl)C1 [Example 25, (R)-5-chloro-N^2-(1-methyl-1H-pyrazol-4-yl)-N^4-((1-(vinylsulfonyl)pyrrolidin-3-yl)methyl)pyrimidine-2,4-diamine] | 0.1 to 1 | > 10 | JAK3 = 556 | < 0.1 | 0.1 to 1 | – | –
8 | CC(=O)N1CC[C@@H](CNc2nc(Nc3cnn(C)c3)ncc2Cl)C1 [Example 26, (S)-1-(3-(((5-chloro-2-((1-methyl-1H-pyrazol-4-yl)amino)pyrimidin-4-yl)amino)methyl)pyrrolidin-1-yl)ethanone] | 0.1 to 1 | 1 to 10 | – | 1 to 10 | 0.1 to 1 | JAK1 = 9 | –
9 | CC(=O)N1CC[C@@H](CNc2nc(Nc3cnn(CCO)c3)ncc2Cl)C1 [Example 27, (S)-1-(3-(((5-chloro-2-((1-(2-hydroxyethyl)-1H-pyrazol-4-yl)amino)pyrimidin-4-yl)amino)methyl)pyrrolidin-1-yl)ethanone] | 0.1 to 1 | 1 to 10 | – | 0.1 to 1 | 0.1 to 1 | JAK1 = 23 | –
10 | C=CC(=O)N1CC[C@@H](CNc2nc(Nc3cnn(C)c3)ncc2Cl)C1 [Example 28, (S)-1-(3-(((5-chloro-2-((1-methyl-1H-pyrazol-4-yl)amino)pyrimidin-4-yl)amino)methyl)pyrrolidin-1-yl)prop-2-en-1-one] | 1 to 10 | > 10 | – | 0.1 to 1 | 1 to 10 | – | –
11 | Cn1cc(Nc2ncc(Cl)c(NC[C@@H]3CCN(S(C)(=O)=O)C3)n2)cn1 [Example 30, (S)-5-chloro-N^2-(1-methyl-1H-pyrazol-4-yl)-N^4-((1-(methylsulfonyl)pyrrolidin-3-yl)methyl)pyrimidine-2,4-diamine] | 1 to 10 | 1 to 10 | – | 0.1 to 1 | 0.1 to 1 | – | Tyk2 = 9
12 | CC(=O)N1CCCC[C@H]1CNc1nc(Nc2cnn(CCO)c2)ncc1Cl [Example 33, (S)-1-(2-(((5-chloro-2-((1-(2-hydroxyethyl)-1H-pyrazol-4-yl)amino)pyrimidin-4-yl)amino)methyl)piperidin-1-yl)ethanone] | 1 to 10 | > 10 | – | 0.1 to 1 | 1 to 10 | JAK1 = 20 | –
13 | C=CC(=O)N1CCCC[C@H]1CNc1nc(Nc2cnn(CCO)c2)ncc1Cl [Example 35, (S)-1-(2-(((5-chloro-2-((1-(2-hydroxyethyl)-1H-pyrazol-4-yl)amino)pyrimidin-4-yl)amino)methyl)piperidin-1-yl)prop-2-en-1-one] | 0.1 to 1 | > 10 | – | 1 to 10 | 1 to 10 | – | –
